Reference: patent US10118954B2, “Apelin analogues” (University of Ulster, priority 2014, dated 2018)
Blank lines part the entries; values can stand above or below the compound they belong to.

Tests used:
[1] = tested on: high fat fed NIH Swiss mice; assay: 28 day long-term study of fatty acid apelin analogues, once daily i.p. administration; format: in vivo
Excerpt: NIH Swiss mice (Harlan UK Ltd., Blackthorne, UK) were derived from a nucleus colony obtained from the National Institute of Health, Bethesda, Md., USA. One group of mice were maintained on a standard rodent diet (10% fat, 30% protein, 60% carbohydrate; percent of total energy 12.99 kJ/g, Trouw Nutrition, Cheshire, UK) and used as a model of normal glycaemia. Other NIH Swiss mice were maintained on a high fat diet (45% fat, 20% protein, 35% carbohydrate; percent of total energy 26.15 kJ/g; Dietex, Essex, UK) from 8 weeks of age for 150 days to produce a model of diet induced obesity-diabetes. […] All mice were housed in an air-conditioned room maintained at 22±2° C. with a 12 h light: 12 h dark cycle (08:00-20:00 h), were singly caged, and selected for experimental groups according to body weight and non-fasted blood glucose. Drinking water and diet were freely available. All animal studies were performed in accordance with the UK Animals (Scientific Procedures) Act 1986.
For another 28 day long-term study of selected fatty acid apelin analogues administered once daily, normal control NIH Swiss (n=8) and high-fat fed NIH Swiss (n=8) were grouped and received once daily i.p. injections of saline vehicle (0.9% NaCl (w/v)) at 17:00 h over a 4 day run-in period. Following the run-in period, normal control (n=8) and high-fat fed mice (n=8) received once daily (17:00 h) i.p. administration of saline vehicle (0.9% NaCl (w/v)) for 28 days. Additional groups of high-fat fed mice (n=8) received once daily i.p. injections of (Lys^8gluPal)apelin-13-amide, pGlu(Lys^8gluPal)apelin-13-amide or liraglutide (each at 25 nmol/kg bw) over a 28 day treatment period.
Food intake, body weight, blood glucose and plasma insulin were monitored at intervals of 2-3 days throughout the run-in and 28 day treatment period. Blood samples for glucose and plasma insulin measurement were collected at intervals throughout the study from the cut tail vein of conscious mice. Following the 28 day treatment period, oral, i.p. and meal test glucose tolerance ([…].), and insulin sensitivity (25 U/kg bw) tests were performed. Glucose was measured using an Ascensia Contour meter and blood was collected and processed for plasma insulin analysis by radioimmunoassay. Body weight and fat mass was also assessed using the PIXImus DEXA scanner whilst energy expenditure, intake, food intake and feeding bouts were assessed using the CLAMS metabolic chamber. HbA1c was analysed post 28 days using Bayer A1C Now^+ Multi Test meter. Lipid profile test was obtained by using the iLab analyser. Cholesterol, triglyceride and HDL-cholesterol levels were measured, in plasma (3 μl), using the iLab analyser. LDL-cholesterol levels were obtained using the Friedewald equation=total cholesterol−HDL−(triglycerides/3).

[2] = Degradation of apelin peptides by plasma from fasted normal NIH Swiss mice (rp-HPLC, MALDI-TOF MS); format: in vitro ADME
Method: Degradation of Apelin Peptides by Plasma from Fasted Normal NIH Swiss Mice […] The enzymatic reaction was stopped by adding 50 μl of 10% TFA (0.1% v/v; Sigma-Aldrich Ltd, (Poole, Dorset, UK) and frozen at -20° C. until separation. The terminated reaction products were then applied to an analytical Vydac C-8 column (4.6×150 mm; Phenomenex, Macclesfield, Cheshire, UK) for rp-HPLC analysis. The absorbance was monitored at 214 nm using a […] UV 2000 detector (Thermoquest Limited, Manchester, UK) and the traces were recorded by Thermo Electron ChromQuest data collection software (version 4). HPLC peak fractions were collected manually and subjected to MALDI-TOF mass spectrometry for peptide identification. Degradation profile of various apelin-13 related analogues: plasma incubations (4 h) were separated on a Vydac C-8 analytical HPLC column and all peaks were collected prior to analysis by MALDI-TOF mass spectrometry. Degradation fragments, actual molecular weights (Mr) and retention times (RT) are shown. Theoretical molecular weights of each fragment are shown in brackets. […] Degradation fragments, theoretical molecular weights (Mr) and retention times (RT) are shown. Theoretical molecular weights of each fragment are shown in brackets.

[3] = tested on: NIH Swiss mice fed a high-fat diet for 150 days; assay: Acute and delayed i.p. glucose tolerance test, blood glucose and plasma insulin; format: in vivo
Method: Plasma glucose and plasma insulin concentrations were measured prior to and after i.p. administration of glucose alone (18 mmol/kg body weight), or in combination with apelin analogues (25 nmol/kg body weight) in 18 h fasted mice fed a high-fat diet for 150 days. Values represent mean±SEM for eight mice (n=8). *P<0.05, **P<0.01 and ***P<0.001 compared to glucose alone. FIG. 6 illustrates effect of i.p. administration of glucose alone (18 mmol/kg body weight), ([…])apelin-13 and ([…])apelin-13 alone or in combination (each 25 nmol/kg body weight) on (A) blood glucose and (B) plasma insulin in 18 h fasted mice fed a high-fat diet for 150 days. Values represent mean±SEM for eight mice (n=8). *p<0.05 and **p<0.01 compared to glucose alone, ^+P<0.05 compared to ([…])apelin-13, ^∇P<0.05 and ^∇∇P<0.01 compared to ([…])apelin-13. FIG. 10 illustrates tests conducted 2 h after administration of apelin related analogues (25 nmol/kg body wt) in 18 h fasted mice fed a high-fat diet for 150 days. (A) Blood glucose and (B) plasma insulin was measured before and after i.p. administration of glucose (18 mmol/kg body wt) alone or in combination with apelin analogues. Values represent mean±SEM for eight mice (n=8). *P<0.05 and **P<0.01 compared to glucose alone. FIG. 11 illustrates tests conducted 8 h after administration of apelin related analogues (25 nmol/kg body wt) in 18 h fasted mice fed a high-fat diet for 150 days. (A) Blood glucose and (B) plasma insulin was measured before and after i.p. administration of glucose (18 mmol/kg body wt) alone or in combination with apelin analogues. Values represent mean±SEM for eight mice (n=8). *P<0.05 and **P<0.01 compared to glucose alone. FIG. 12 illustrates acute effects of fatty acid modified apelin analogues on glucose-lowering and insulin release in high fat fed Swiss NIH mice with dietary-induced diabetes. (A) Blood glucose and (B) plasma insulin concentrations were measured prior to and after i.p. administration of glucose alone (18 mmol/kg body weight), or in combination with apelin analogues (25 nmol/kg body weight) in 18 h fasted mice fed a high-fat diet for 150 days. Values represent mean±SEM for eight mice (n=8). *P<0.05, compared to glucose alone. FIG. 13 illustrates tests conducted 16 h after administration of fatty acid apelin analogues (25 nmol/kg body wt) in mice fed a high-fat diet for 150 days. (A) Blood glucose and (B) plasma insulin was measured before and after i.p. administration of glucose (18 mmol/kg body wt) alone or in combination with apelin analogues. Values represent mean±SEM for eight mice (n=8). *P<0.05, **P<0.01 and ***P<0.001 compared to glucose alone. NIH Swiss mice (Harlan UK Ltd., Blackthorne, UK) were derived from a nucleus colony obtained from the National Institute of Health, Bethesda, Md., USA. One group of mice were maintained on a standard rodent diet (10% fat, 30% protein, 60% carbohydrate; percent of total energy 12.99 kJ/g, Trouw Nutrition, Cheshire, UK) and used as a model of normal glycaemia. Other NIH Swiss mice were maintained on a high fat diet (45% fat, 20% protein, 35% carbohydrate; percent of total energy 26.15 […], UK) from 8 weeks of age for 150 days to produce a model of diet induced obesity-diabetes. […] All mice were housed in an air-conditioned room maintained at 22±2° C. with a 12 h light: 12 h dark cycle (08:00-20:00 h), were singly caged, and selected for experimental groups according to body weight and non-fasted blood glucose. Drinking water and diet were freely available. All animal studies were performed in accordance with the UK Animals (Scientific Procedures) Act 1986. For acute in vivo studies, blood samples were collected from the cut tip of the tail vain of fasted, conscious mice into fluoride/heparin coated glucose microcentrifuge tubes (Sarstedt, Germany) immediately prior to (t=0) and at 15, 30, 60 and 105 min following i.p. injection of glucose ([…]).

[4] = once daily 25 nmol/kg bw, 28 days
[5] = NIH Swiss, mouse, plasma, pH 7.4
[6] = fatty acid derived agonists, 16 h delayed i.p. glucose tolerance test, 25 nmol/kg
[7] = fatty acid derived agonists, acute i.p. glucose tolerance test, 25 nmol/kg
[8] = acute, peptide 25 nmol/kg i.p. with glucose 18 mmol/kg, Table 4
[9] = following a 2 h delay, 25 nmol/kg
[10] = following a 8 h delay, 25 nmol/kg

- Rank order of stability [2]: =1
- Half-life (t1/2) ([2]; NIH Swiss, mouse, plasma, 263 µg/mL, pH 7.4): >24 h
- half-life at 263 µg/mL [2, 5]: > 24 h
- remaining at 4 h, 263 µg/mL [2, 5]: 100%
Structure (SMILES): CCCCCCCCCCCCCCCC(=O)N[C@@H](CCC(=O)NCCCC[C@H](NC(=O)[C@H](Cc1c[nH]cn1)NC(=O)[C@H](CO)NC(=O)[C@H](CC(C)C)NC(=O)[C@H](CCCNC(=N)N)NC(=O)[C@@H]1CCCN1C(=O)[C@H](CCCNC(=N)N)NC(=O)[C@@H](N)CCC(N)=O)C(=O)NCC(=O)N1CCC[C@H]1C(=O)N[C@@H](CCSC)C(=O)N1CCC[C@H]1C(=O)N[C@@H](Cc1ccccc1)C(N)=O)C(=O)O [(Lys^8GluPAL)apelin-13-amide]
- Percentage fat mass ([1]; after 28 days, DEXA analysis): 30.8%
- Insulin sensitivity ([1]; after 28 days, insulin 25 U/kg bw): significantly improved
- Glucose tolerance and plasma insulin excursion in response to an i.p and oral glucose challenge ([1]; after the 28 day treatment period): significantly improved
- HDL-cholesterol levels compared to the lean control and high fat fed mice ([1]; once daily): significantly increased
- Bodyweight reduction [1, 4]: approximately 4%
- Day of study at which bodyweight was significantly decreased [1, 4]: 21 days
- Day of study at which circulating blood glucose began to be significantly reduced and plasma insulin increased [1, 4]: 10 days
- Day of study at which food intake was significantly reduced [1, 4]: 8 days
- LDL-cholesterol levels compared to the high fat fed controls ([1]; once daily, Friedewald equation): significantly lowered
- Plasma triglyceride levels ([1]; once daily, high-fat fed mice): significantly lower
- Rank order on basis of anti-hyperglycaemic efficacy ([3]; fatty acid derived agonists, 16 h delay): 2
- Blood glucose as percent of glucose-alone control (lower = stronger glucose lowering) [3, 6]: 61% (**)
- Insulin secretion, where glucose alone = 100% [3, 6]: 156% (***)
- Rank order on basis of anti-hyperglycaemic efficacy ([3]; fatty acid derived agonists, acute): 2
- Glucose lowering, where glucose alone = 100% [3, 7]: 85%
- Insulin secretion, where glucose alone = 100% [3, 7]: 110%

- Degradation fragment, Peak 1 [2]: (1-5)
- Degradation fragment, Peak 2 [2]: (1-6)
- Degradation fragment, Peak 3 [2]: (1-12)
- Rank order of stability [2]: 4
- half-life at 263 µg/mL [2, 5]: 12.2 h
- remaining at 4 h, 263 µg/mL [2, 5]: 79 ± 0.6%
Structure (SMILES): CSCC[C@H](NC(=O)[C@@H]1CCCN1C(=O)CNC(=O)[C@H](CCCCN)NC(=O)[C@H](Cc1c[nH]cn1)NC(=O)[C@H](CO)NC(=O)[C@H](CC(C)C)NC(=O)[C@H](CCCNC(=N)N)NC(=O)[C@@H]1CCCN1C(=O)[C@H](CCCNC(=N)N)NC(=O)[C@@H]1CCC(=O)N1)C(=O)N1CCC[C@H]1C(=O)N[C@@H](Cc1ccc(O)cc1)C(=O)O [pGlu(Tyr^13)apelin-13, pGlu (Tyr^13)apelin-13]
- Rank order on basis of anti-hyperglycaemic efficacy ([3]; acute, Table 4): 3
- Blood glucose as percent of glucose-alone control (lower = stronger glucose lowering) [3, 8]: 71% (*)
- Insulin secretion, where glucose alone = 100% [3, 8]: 138% (**)
- Rank order on basis of anti-hyperglycaemic efficacy ([3]; following a 2 h delay): 3
- Blood glucose as percent of glucose-alone control (lower = stronger glucose lowering) [3, 9]: 78% (**)
- Insulin secretion, where glucose alone = 100% [3, 9]: 142% (**)
- Rank order on basis of anti-hyperglycaemic efficacy ([3]; following a 8 h delay): 2
- Blood glucose as percent of glucose-alone control (lower = stronger glucose lowering) [3, 10]: 86% (*)
- Insulin secretion, where glucose alone = 100% [3, 10]: 112%

- Degradation fragment, Peak 1 [2]: (1-6)
- Degradation fragment, Peak 2 [2]: (1-12)
- Rank order of stability [2]: 9
- half-life at 263 µg/mL [2, 5]: 9.8 h
- remaining at 4 h, 263 µg/mL [2, 5]: 76.2 ± 1.9%
Structure (SMILES): CSCC[C@H](NC(=O)[C@@H]1CCCN1C(=O)CNC(=O)[C@H](CCCCN)NC(=O)[C@H](Cc1c[nH]cn1)NC(=O)[C@H](CO)NC(=O)[C@H](CC(C)C)NC(=O)[C@H](CCCNC(=N)N)NC(=O)[C@@H]1CCCN1C(=O)[C@H](CCCNC(=N)N)NC(=O)[C@@H]1CCC(=O)N1)C(=O)N1CCC[C@H]1C(=O)N[C@H](C(=O)O)C(C)C [pGlu(Val^13)apelin-13, pGlu (Val^13)apelin-13]
- Rank order on basis of anti-hyperglycaemic efficacy ([3]; acute, Table 4): 8
- Blood glucose as percent of glucose-alone control (lower = stronger glucose lowering) [3, 8]: 116% (*)
- Insulin secretion, where glucose alone = 100% [3, 8]: 75% (**)
